# Measurements as given in US12280066B2, “Methods and compositions related to glucocorticoid receptor antagonists and breast cancer” (The University of Chicago, priority 2010, dated 2025).
# What was measured:
# [1] = test system: T-R MCF-7 (ER+/PR+/GR+) cells; assay: Annexin V FACS apoptosis assay, T-R MCF-7 cells; assay type: cell-based; settings: mifepristone/paclitaxel 10^-6 M compared to paclitaxel alone, 20 hours, P=0.028
# Description: (§1) Apoptosis was measured using FITC conjugated-anti-Annexin V antibody labeling followed FACS analysis to determine the percentage of the total cell population undergoing apoptosis after 20 hours of treatment.
# [2] = test system: Parental MCF-7 (ER+/PR+/GR+) cells; assay: Annexin V FACS apoptosis assay, parental MCF-7 cells; assay type: cell-based; settings: mifepristone/paclitaxel 10^-6 M compared to paclitaxel alone, 20 hours
# Description: as §1
# [3] = test system: MDA-MB-231 human breast cancer cells; assay: MDA-MB-231 xenograft tumor volume in SCID mice; settings: mifepristone 15 mg/kg i.p. two hours prior to paclitaxel 10 mg/kg, five successive days, compared to paclitaxel alone, P=0.013
# [4] = test system: glucocorticoid receptor (GR); settings: literature (Moran et al., 2000; Mikosz et al., 2001); cited from earlier work
compound,measurement,setting,value
CC#C[C@]1(O)CC[C@H]2[C@@H]3CCC4=CC(=O)CCC4=C3[C@@H](c3ccc(N(C)C)cc3)C[C@@]21C [mifepristone],apoptosis (percentage of total cell population undergoing apoptosis),[1],Significantly more apoptosis
same,apoptosis (percentage of total cell population undergoing apoptosis),[1]; listed as Mifepristone,increases
same,apoptosis (percentage of total cell population undergoing apoptosis),[2],No difference
same,apoptosis (percentage of total cell population undergoing apoptosis),[2]; listed as Mifepristone,not parental MCF-7
same,tumor volume over time,[3],increases MDA-MB-231 tumor susceptibility to paclitaxel
same,tumor volume over time,[3]; listed as Mifepristone,significantly decreased tumor volume over time
same,reversal of GR-initiated cell survival signaling,[4],reverses cell survival signaling pathways initiated by the GR
